In patent US10919891B2, “Heterocyclic compound” (TAKEDA PHARMACEUTICAL COMPANY LIMITED, priority 2017, dated 2021):

What was measured:
human CaSR = target: T1, human CaSR (Homo sapiens, UniProt P41180); assay: Human CaSR Antagonist Activity (CHO cells, NFAT-Luciferase reporter); type: cell-based; settings: 3.3 μm test compound, CaCl2 final 1.3 mM, 100% = reference carboxamide at 10 μM; for inhibition at 3.3 µM: CHO, 2 h, read-out: Inhibition rate (%) at 3.3 μm
T1 construct: expressed in transfected cells; host or cells: CHO cells
T1 sequence (P41180 20-1078): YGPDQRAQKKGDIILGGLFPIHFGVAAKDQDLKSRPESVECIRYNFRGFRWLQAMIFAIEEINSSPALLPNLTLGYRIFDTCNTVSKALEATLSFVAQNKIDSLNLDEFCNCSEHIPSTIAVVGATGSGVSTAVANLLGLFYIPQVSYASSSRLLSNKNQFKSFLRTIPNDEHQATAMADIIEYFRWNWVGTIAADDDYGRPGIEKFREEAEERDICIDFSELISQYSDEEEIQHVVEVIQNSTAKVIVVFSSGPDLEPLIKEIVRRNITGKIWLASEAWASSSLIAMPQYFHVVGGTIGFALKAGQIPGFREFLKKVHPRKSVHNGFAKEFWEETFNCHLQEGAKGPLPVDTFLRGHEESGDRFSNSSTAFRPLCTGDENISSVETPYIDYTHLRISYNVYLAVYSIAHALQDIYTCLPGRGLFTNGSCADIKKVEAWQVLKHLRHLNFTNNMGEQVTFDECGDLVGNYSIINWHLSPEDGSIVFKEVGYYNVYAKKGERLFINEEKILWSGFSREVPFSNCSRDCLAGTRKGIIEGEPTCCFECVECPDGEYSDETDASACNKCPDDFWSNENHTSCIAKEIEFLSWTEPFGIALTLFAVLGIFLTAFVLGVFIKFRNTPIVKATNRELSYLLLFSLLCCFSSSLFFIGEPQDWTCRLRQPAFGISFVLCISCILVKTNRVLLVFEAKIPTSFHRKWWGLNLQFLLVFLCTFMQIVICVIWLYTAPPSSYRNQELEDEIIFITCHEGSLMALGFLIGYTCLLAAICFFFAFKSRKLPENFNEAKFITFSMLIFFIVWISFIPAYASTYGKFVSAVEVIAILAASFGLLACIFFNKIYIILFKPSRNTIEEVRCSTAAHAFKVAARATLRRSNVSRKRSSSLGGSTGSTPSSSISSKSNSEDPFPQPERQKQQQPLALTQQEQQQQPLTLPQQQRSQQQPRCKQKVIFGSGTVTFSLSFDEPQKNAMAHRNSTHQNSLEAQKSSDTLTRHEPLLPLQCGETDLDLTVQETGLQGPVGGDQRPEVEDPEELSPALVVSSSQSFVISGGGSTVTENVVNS
Experimental: CaSR antagonist activity measurement was performed using Bright-Glo Luciferase assay system (Promega Corporation). CHO cells in which human CaSR and NFAT-Luciferase reporter gene were forcibly expressed were suspended in MEM alpha (Wako Pure Chemical Industries, Ltd.) containing 10% dialyzed serum (HyClone). The cells in suspension was seeded in 384-well white plate (Corning) at 10,000/20 μL/well, and cultured in an incubator of 37° C., 5% CO2 for one day. A diluent of Test compound was prepared with assay buffer (MEM alpha containing 10 mM HEPES (Life Technologies) and 10% dialysis serum). The diluent was added to the plate at 5 μL/well and allowed to stand at 37° C. for 10 minutes. Further, a diluent of 7.8 mM CaCl2 prepared with assay buffer (final concentration 1.3 mM) was added at 5 μl/well and allowed to stand in an incubator of 37° C., 5% CO2 for 2 hours. Bright-Glo reagents (Promega Corporation) were added at 10 μL/well, and the obtained mixture was stirred for 5 minutes, and then luminescence intensity was measured using Multi-label reader Envision (PerkinElmer, Inc.). The activity (%) of the test compound was calculated with the definitions in which the luminescence intensity when DMSO is added in place of the test compound is defined as 0% inhibition; and the luminescence intensity when (5R)—N-(1-ethyl-1-(4-ethylphenyl)propyl)-2,7,7-trimethyl-5-phenyl-4,5,6,7-tetrahydropyrazolo[1,5-a]Pyrimidine-3-carboxamide at final concentration of 10 μM is added is defined as 100% inhibition.

CYP3A = assay: CYP Induction (CYP3A activity in cryopreserved hepatocytes, P450-Glo CYP3A4 assay); type: in vitro ADME; settings: % of positive control (inducibility by 10 μmol/L rifampicin = 100%); hepatocytes treated 3 days
Experimental: Cryopreserved hepatocytes were thawed in a culture medium (In VitroGRO™ CP Medium, Celsis In Vitro Technologies, U.S.A.), and the resultant was added to BioCoat™ Matrigel® Matrix Thin-Layer 96 well (Becton, Dickinson and Company, U.S.A.) at a concentration of 40,000 cells/well. After culturing for 24 hours, the culture medium was removed, and replaced with an incubation medium (In VitroGRO™, HI Medium with Torpedo Antibiotic Mix, Celsis In Vitro Technologies, U.S.A.). Cells were cultured for an additional 3 days. The medium was removed on day 4, and the remained cells were treated in the induction medium containing a test compound for 3 days in the presence or absence of 10 μmol/L rifampicin. The induction medium was replaced every day. The test compound addition wells in the presence of 10 μmol/L rifampicin were used to evaluate the inhibitory effect of the test compound on the inducibility of the CYP3A activity by rifampicin. The CYP3A activity was evaluated by measuring luciferin generating amount after the addition of 2 μmol/L luciferin-IPA using IPA P450-Glo™ CYP3A4 assay systems (Promega Corporation, U.S.A.). All cultures were carried out under a humidified environment at 37° C., 5% CO2. The inducibility by rifampicin was defines as 100%, and the inducibility of the test compound (% of positive control) was calculated from the following equation: [(luciferin fluorescence intensity in the absence of rifampicin and the presence of test compound)−(luciferin fluorescence intensity in the absence of rifampicin and test compound)/(luciferin fluorescence intensity in the presence of rifampicin and the absence of test compound)−(Luciferin fluorescence intensity in the absence of rifampicin and test compound)]×100.

CYP3A4 = target: T2, CYP3A4 (Homo sapiens, UniProt P08684); assay: CYP3A4 TDI (human liver microsomes, testosterone 6β-hydroxylation); type: in vitro ADME; settings: test compound 30 μM, 60 min vs 0 min preincubation with NADPH, 37° C.
T2 construct: Human liver microsomes purchased from XenoTech, LLC (Lenexa, Kans.) was used; tissue XenoTech, LLC; host or cells: human liver microsomes
T2 sequence (P08684 whole entry): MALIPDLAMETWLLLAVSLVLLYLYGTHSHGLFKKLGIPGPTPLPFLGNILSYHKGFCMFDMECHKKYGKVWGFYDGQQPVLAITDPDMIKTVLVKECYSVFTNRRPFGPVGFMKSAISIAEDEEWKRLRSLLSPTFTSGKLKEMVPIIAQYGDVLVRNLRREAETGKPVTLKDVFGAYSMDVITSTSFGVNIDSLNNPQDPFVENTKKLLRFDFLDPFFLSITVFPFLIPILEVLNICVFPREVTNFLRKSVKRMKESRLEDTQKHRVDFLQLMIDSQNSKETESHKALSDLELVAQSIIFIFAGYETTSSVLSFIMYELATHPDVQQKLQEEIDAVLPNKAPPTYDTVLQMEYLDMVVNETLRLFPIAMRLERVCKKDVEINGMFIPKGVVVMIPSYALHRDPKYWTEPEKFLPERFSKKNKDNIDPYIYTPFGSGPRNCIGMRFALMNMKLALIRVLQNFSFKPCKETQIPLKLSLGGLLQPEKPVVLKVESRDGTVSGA
Experimental: Human liver microsomes purchased from XenoTech, LLC (Lenexa, Kans.) was used. Test compounds were dissolved in acetonitrile, acetonitrile/methanol (1:1, v/v) or DMSO/acetonitrile (1:4, v/v). To a human liver microsomes solution adjusted with phosphate buffer (pH 7.4), the test compound solution was added to obtain a human liver microsomes reaction solution having the test compound concentration of 30 μM. To the human liver microsome reaction solution, NADPH production system was added, and the mixture was preincubated at 37° C. for 0 minutes or 60 minutes. After the preincubation, probe substrate testosterone was added, and testosterone metabolite 6β-hydroxytestosterone was analyzed by LC/MS/MS to evaluate CYP3A4 enzymatic activity.
The enzyme activity (% of control) at each preincubation point was calculated from the following equation: % of control=[(activity of test compound addition group)/(activity of test compound non-addition group)]×100.
The remaining activity (% remaining) after 60 minutes of preincubation was calculated from the following equation: Remaining activity (%)=[activity after 60 minutes (% of control60 min)]/[activity after 0 minutes (% of control0 min)]×100.

[1] = tested on: aortic banding (TAC) models; settings: cited from earlier work
[2] = dosing after cardiac loading; cited from earlier work

Row | Compound | inhibition at 3.3 µM (human CaSR) [%] | Inducibility (%) (CYP3A) | Remaining Activity (%) (CYP3A4) | other results
1 | CC1(C)C[C@H](c2ccccc2)Nc2c(C(=O)N3CC4CC4(c4ccc(C(F)(F)F)c(Cl)c4)C3)cnn21 (single isomer, unassigned) [Example 11] | 99 | 1.2 | 97.7 | –
2 | CC1(C)C[C@H](c2ccccc2)Nc2c(C(=O)N3CC4CC4(c4cc(Cl)cc(Cl)c4)C3)cnn21 (single isomer, unassigned) [Example 4] | 100 | 10.7 | 87.0 | –
3 | CC1(C)C[C@H](c2ccccc2)Nc2c(C(=O)N3CC4CC4(c4ccc(C(F)(F)F)cc4)C3)cnn21 (single isomer, unassigned) [Example 7] | 97 | 2.3 | 78.1 | –
4 | C[C@@H](N[C@H]1CCCC[C@@H]1NC(=O)c1ccc(Cl)cc1)c1cccc2ccccc12 [Calhex231] | – | – | – | cardiac hypertrophy [1]: improves cardiac hypertrophy; cardiac hypofunction [2]: fails to improve cardiac hypofunction
5 | CC1(C)C[C@H](c2ccccc2)Nc2c(C(=O)N3CC4CC4(c4cc(Cl)cc(C(F)(F)F)c4)C3)cnn21 (single isomer, unassigned) [Example 9] | 96 | 9.0 | 86.4 | –
6 | CC1(C)C[C@H](c2ccccc2)Nc2c(C(=O)N3CC4C[C@]4(c4ccc(C(F)(F)F)cc4)C3)cnn21 (stereo partly drawn) [Example 8, ((5R)-7,7-Dimethyl-5-phenyl-4,5,6,7-tetrahydropyrazolo[1,5-a]pyrimidin-3-yl)(1-(4-(trifluoromethyl)phenyl)-3-azabicyclo[3.1.0]hex-3-yl)methanone] | 92 | – | – | –
7 | CC1(C)C[C@H](c2ccccc2)Nc2c(C(=O)N3CC4CC4(c4cccc(Cl)c4)C3)cnn21 (stereo partly drawn) [Example 17, (1-(3-Chlorophenyl)-3-azabicyclo[3.1.0]hex-3-yl)((5R)-7,7-dimethyl-5-phenyl-4,5,6,7-tetrahydropyrazolo[1,5-a]pyrimidin-3-yl)methanone] | – | – | – | Inhibition rate (%) at 3.3 μm (human CaSR): 95%
8 | COc1cccc(C23CC2CN(C(=O)c2cnn4c2N[C@@H](c2ccccc2)CC4(C)C)C3)c1 (stereo partly drawn) [Example 20, ((5R)-7,7-Dimethyl-5-phenyl-4,5,6,7-tetrahydropyrazolo[1,5-a]pyrimidin-3-yl)(1-(3-methoxyphenyl)-3-azabicyclo[3.1.0]hex-3-yl)methanone] | – | – | – | Inhibition rate (%) at 3.3 μm (human CaSR): 93%
9 | Cc1cccc(C23CC2CN(C(=O)c2cnn4c2N[C@@H](c2ccccc2)CC4(C)C)C3)c1 (stereo partly drawn) [Example 23, ((5R)-7,7-Dimethyl-5-phenyl-4,5,6,7-tetrahydropyrazolo[1,5-a]pyrimidin-3-yl)(1-(3-methylphenyl)-3-azabicyclo[3.1.0]hex-3-yl)methanone] | – | – | – | Inhibition rate (%) at 3.3 μm (human CaSR): 92%
10 | CC1(C)C[C@H](c2ccccc2)Nc2c(C(=O)N3C[C@H]4C[C@@]4(c4ccc(Cl)c(Cl)c4)C3)cnn21 [Example 2, ((1R,5S)-1-(3,4-Dichlorophenyl)-3-azabicyclo[3.1.0]hex-3-yl)((5R)-7,7-dimethyl-5-phenyl-4,5,6,7-tetrahydropyrazolo[1,5-a]pyrimidin-3-yl)methanone] | 92 | – | – | –
11 | CC1(C)C[C@H](c2ccccc2)Nc2c(C(=O)N3CC4CC4(c4ccc(C(F)(F)F)cc4F)C3)cnn21 (stereo partly drawn) [Example 29, ((5R)-7,7-Dimethyl-5-phenyl-4,5,6,7-tetrahydropyrazolo[1,5-a]pyrimidin-3-yl)(1-(2-fluoro-4-(trifluoromethyl)phenyl)-3-azabicyclo[3.1.0]hex-3-yl)methanone] | – | – | – | Inhibition rate (%) at 3.3 μm (human CaSR): 92%

Further lines, with some results ahead:

Row | inhibition at 3.3 µM (human CaSR) [%] | Inducibility (%) (CYP3A) | Remaining Activity (%) (CYP3A4) | Compound | other results
12 | 117 | – | – | Cc1ccc(C23CN(C(=O)c4cnn5c4N[C@@H](c4ccccc4)CC5(C)C)CC2C3(F)F)cc1 (stereo partly drawn) [Example 48, (6,6-Difluoro-1-(4-methylphenyl)-3-azabicyclo[3.1.0]hex-3-yl)((5R)-7,7-dimethyl-5-phenyl-4,5,6,7-tetrahydropyrazolo[1,5-a]pyrimidin-3-yl)methanone] | –
13 | 101 | 16.7 | 81.8 | CC1(C)C[C@H](c2ccccc2)Nc2c(C(=O)N3CC4CC4(c4ccc(Cl)c(C(F)(F)F)c4)C3)cnn21 (single isomer, unassigned) [Example 13] | –
14 | 128 | – | – | COc1ccc(C23CN(C(=O)c4cnn5c4N[C@@H](c4ccccc4)CC5(C)C)CC2C3(F)F)cc1 (stereo partly drawn) [Example 50, (6.6-Difluoro-1-(4-methoxyphenyl)-3-azabicyclo[3.1.0]hex-3-yl)((5R)-7,7-dimethyl-5-phenyl-4,5,6,7-tetrahydropyrazolo[1,5-a]pyrimidin-3-yl)methanone] | –
15 | 96 | – | – | CC1(C)C[C@H](c2ccccc2)Nc2c(C(=O)N3C[C@@H]4C[C@]4(C(F)F)C3)cnn21 [Example 47] | –
16 | 97 | – | – | CC1(C)C[C@H](c2ccccc2)Nc2c(C(=O)N3CC4CC4(c4cccc(C(F)(F)F)c4)C3)cnn21 (stereo partly drawn) [Example 25, ((5R)-7,7-Dimethyl-5-phenyl-4,5,6,7-tetrahydropyrazolo[1,5-a]pyrimidin-3-yl)(1-(3-(trifluoromethyl)phenyl)-3-azabicyclo[3.1.0]hex-3-yl)methanone] | –
